In patent US20240335442A1 (Eurofarma Laboratórios S.A., priority 2021, published 2024):

Experiments:
[1] = target: human sodium channel Nav 1.8 (Homo sapiens (Human), UniProt Q9Y5Y9); test: Automated whole-cell voltage-clamp (ScreenPatch 384P), Nav 1.8 sodium current, Protocol 2; assay type: cell-based; conditions: read-out: Nav1.8 IC50
Outline: (§1)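 CHO cells stably expressing human Nav1.7 or Nav1.8, automated whole-cell clamp, room temperature, ≥5 min exposure at eight concentrations. Protocol 1: hold −90 mV, 0.1 Hz, test pulse 0 mV (Nav1.7) or 10 mV (Nav1.8). Protocol 2: hold −100 mV with 8 s −40 mV inactivating step, 0.05 Hz. IC50 from Hill fit of TP1A peak-current block, normalized to vehicle and positive control.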

[2] = target: human sodium channel Nav 1.7 (Homo sapiens (Human), UniProt Q15858); test: Automated whole-cell voltage-clamp (ScreenPatch 384P), Nav 1.7 sodium current, Protocol 2; assay type: cell-based; conditions: read-out: Nav1.7 IC50
Outline: as §1

Chain of human sodium channel Nav 1.7 (Q15858 whole entry): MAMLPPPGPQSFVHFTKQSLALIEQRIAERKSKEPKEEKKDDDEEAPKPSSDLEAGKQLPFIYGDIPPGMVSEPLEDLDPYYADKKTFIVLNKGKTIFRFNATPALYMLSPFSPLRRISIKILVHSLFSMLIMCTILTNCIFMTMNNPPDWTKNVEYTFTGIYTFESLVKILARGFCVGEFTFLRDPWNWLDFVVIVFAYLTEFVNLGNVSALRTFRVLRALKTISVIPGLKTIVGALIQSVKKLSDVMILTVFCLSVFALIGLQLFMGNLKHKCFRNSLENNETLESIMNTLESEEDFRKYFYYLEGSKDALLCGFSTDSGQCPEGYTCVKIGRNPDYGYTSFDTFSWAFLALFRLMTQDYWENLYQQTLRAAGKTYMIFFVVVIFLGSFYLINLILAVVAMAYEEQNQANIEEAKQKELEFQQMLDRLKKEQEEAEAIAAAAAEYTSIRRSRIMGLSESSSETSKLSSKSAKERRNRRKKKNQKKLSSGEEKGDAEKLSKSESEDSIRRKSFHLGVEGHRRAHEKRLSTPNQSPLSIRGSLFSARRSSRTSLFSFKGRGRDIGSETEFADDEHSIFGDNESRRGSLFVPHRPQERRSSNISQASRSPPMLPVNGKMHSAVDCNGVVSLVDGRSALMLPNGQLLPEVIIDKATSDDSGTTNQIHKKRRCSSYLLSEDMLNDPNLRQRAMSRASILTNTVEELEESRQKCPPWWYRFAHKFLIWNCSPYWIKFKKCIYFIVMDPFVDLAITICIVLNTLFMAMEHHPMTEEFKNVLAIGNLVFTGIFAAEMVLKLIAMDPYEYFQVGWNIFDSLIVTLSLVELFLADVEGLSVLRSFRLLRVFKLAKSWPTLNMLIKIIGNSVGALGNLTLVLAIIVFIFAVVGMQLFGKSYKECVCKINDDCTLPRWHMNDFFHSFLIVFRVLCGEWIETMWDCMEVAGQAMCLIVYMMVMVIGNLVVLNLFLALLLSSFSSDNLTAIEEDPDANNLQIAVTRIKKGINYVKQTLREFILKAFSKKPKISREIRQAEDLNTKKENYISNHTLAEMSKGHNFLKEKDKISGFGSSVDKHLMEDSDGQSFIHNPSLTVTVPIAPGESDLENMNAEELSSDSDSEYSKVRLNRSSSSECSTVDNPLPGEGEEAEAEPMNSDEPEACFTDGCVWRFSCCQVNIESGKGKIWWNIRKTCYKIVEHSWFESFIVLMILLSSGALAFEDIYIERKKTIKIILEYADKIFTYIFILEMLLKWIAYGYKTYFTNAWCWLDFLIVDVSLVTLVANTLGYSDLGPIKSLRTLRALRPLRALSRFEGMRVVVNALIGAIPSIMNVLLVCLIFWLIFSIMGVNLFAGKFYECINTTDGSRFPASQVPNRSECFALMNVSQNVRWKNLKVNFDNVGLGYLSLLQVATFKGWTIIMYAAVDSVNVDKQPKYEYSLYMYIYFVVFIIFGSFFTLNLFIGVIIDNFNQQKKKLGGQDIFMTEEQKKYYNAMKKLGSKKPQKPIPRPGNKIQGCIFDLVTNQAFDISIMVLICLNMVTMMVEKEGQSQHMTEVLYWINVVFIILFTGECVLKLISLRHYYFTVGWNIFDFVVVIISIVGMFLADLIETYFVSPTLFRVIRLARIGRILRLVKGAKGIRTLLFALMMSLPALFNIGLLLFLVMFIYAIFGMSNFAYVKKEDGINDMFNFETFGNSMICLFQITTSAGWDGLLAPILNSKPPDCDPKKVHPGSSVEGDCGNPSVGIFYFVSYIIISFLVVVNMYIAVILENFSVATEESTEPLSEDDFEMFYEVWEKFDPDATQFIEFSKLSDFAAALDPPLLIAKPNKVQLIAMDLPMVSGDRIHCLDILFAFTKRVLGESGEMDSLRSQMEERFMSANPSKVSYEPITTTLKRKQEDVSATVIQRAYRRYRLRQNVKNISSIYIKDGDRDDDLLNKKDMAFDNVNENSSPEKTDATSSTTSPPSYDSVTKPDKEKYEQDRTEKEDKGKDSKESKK
Chain of human sodium channel Nav 1.8 (Q9Y5Y9 whole entry): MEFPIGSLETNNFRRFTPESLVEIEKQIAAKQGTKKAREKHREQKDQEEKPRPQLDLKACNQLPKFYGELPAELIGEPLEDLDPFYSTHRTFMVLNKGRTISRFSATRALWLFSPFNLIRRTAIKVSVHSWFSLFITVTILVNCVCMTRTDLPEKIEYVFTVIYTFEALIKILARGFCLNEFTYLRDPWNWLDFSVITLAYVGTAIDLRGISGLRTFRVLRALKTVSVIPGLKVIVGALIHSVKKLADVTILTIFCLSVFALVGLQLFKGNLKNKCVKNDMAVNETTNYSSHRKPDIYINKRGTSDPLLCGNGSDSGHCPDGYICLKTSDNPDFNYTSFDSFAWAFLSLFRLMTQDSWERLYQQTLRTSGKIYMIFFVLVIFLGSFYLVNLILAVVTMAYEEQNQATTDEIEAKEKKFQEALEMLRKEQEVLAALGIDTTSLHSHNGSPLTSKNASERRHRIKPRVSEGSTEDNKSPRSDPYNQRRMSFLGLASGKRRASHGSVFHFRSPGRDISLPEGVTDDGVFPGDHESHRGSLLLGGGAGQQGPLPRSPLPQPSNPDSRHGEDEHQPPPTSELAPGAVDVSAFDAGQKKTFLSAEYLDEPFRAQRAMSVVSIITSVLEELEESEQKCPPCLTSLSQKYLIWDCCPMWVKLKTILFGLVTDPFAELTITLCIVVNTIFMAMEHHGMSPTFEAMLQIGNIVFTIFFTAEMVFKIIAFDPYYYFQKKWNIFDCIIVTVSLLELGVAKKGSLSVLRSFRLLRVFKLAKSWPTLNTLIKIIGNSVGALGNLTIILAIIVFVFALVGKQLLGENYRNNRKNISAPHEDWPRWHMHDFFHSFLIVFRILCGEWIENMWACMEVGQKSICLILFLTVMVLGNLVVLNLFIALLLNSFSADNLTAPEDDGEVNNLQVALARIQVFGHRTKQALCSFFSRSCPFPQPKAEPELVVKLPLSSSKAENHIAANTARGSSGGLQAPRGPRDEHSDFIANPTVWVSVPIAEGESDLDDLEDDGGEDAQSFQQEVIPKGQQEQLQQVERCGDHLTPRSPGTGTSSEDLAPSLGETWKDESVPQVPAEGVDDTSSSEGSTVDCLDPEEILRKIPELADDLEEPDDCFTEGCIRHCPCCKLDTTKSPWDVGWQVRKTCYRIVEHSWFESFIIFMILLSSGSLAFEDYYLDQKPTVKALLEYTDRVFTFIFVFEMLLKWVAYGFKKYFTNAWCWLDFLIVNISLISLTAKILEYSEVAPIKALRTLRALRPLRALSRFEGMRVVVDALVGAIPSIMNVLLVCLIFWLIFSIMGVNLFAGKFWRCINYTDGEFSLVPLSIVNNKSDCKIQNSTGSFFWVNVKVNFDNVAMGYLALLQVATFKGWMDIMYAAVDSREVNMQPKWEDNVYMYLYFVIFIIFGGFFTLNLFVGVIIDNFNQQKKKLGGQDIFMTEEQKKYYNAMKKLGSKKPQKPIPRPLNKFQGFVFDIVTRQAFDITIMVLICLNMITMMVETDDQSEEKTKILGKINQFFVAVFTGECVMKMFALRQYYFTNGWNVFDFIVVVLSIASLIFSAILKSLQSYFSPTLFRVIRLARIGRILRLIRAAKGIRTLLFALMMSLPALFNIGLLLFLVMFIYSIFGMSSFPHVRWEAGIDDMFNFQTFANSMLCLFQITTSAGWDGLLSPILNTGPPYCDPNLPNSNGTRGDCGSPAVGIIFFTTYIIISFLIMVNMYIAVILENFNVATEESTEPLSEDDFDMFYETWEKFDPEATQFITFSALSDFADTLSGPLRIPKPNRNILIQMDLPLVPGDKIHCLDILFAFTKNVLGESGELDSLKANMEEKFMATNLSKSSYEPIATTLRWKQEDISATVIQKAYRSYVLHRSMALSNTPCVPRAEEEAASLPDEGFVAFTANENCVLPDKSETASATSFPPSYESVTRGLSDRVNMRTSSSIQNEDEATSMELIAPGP

Row | IC50 [1] [nM] | IC50 [2] [nM] | SMILES
1 | 441 | > 10000 | COc1ccc(-c2cncc(C(=O)N/N=C/c3cccc(F)c3)n2)cc1 [Compound 53, (E)-N′-(3-fluorobnezylidene)-6-(4-methoxyphenyl)pyrazine-2-carbohydrazide]
2 | > 1000 | > 10000 | COc1cc(/C=N/NC(=O)c2nccnc2Cl)cc(OC)c1 [Compound 165, (E)-3-chloro-N′-(3,5-dimethoxybenzylidene)pyrazine-2-carbohydrazide]
3 | 149 | 212 | COc1cc(/C=N/NC(=O)c2cncc(-c3ccc(OC4CCCCC4)cc3)n2)cc(OC)c1 [Compound 89, (E)-6-(4-(cyclohexyloxy)phenyl)-N′-(3,5-dimethoxybenzylidene)pyrazine-2-carbohydrazide]
4 | 800 | 6600 | COc1ccc(-c2cncc(C(=O)N/N=C/c3ccc(C)cc3)n2)cc1 [Compound 65, (E)-6-(4-methoxyphenyl)-N′-(4-methylbenzylidene)pyrazine-2-carbohydrazide]
5 | 93.3 | 224 | CCCOc1cc(/C=N/NC(=O)c2cncc(-c3ccc(OCC)cc3)n2)cc(OC)c1 [Compound 16, (E)-6-(4-ethoxyphenyl)-N′-(3-methoxy-5-propoxybenzylidene)pyrazine-2-carbohydrazide]
6 | 496 | 219 | CCOc1ccc(-c2cncc(C(=O)N/N=C/c3cc(OC)cc(OC)c3)n2)c(C(F)(F)F)c1 [Compound 187]
7 | > 1000 | > 10000 | COc1cc(/C=N/NC(=O)c2cncc(-c3ccccc3N3CCOCC3)n2)cc(OC)c1 [Compound 114]
8 | > 1000 | > 10000 | COc1ccc(-c2cncc(C(=O)N/N=C/c3c(OC)cccc3OC)n2)cc1 [Compound 79, (E)-N′-(2,6-dimethoxybenzylidene)-6-(4-methoxyphenyl)pyrazine-2-carbohydrazide]
9 | 115 | 1570 | COc1ccc(-c2cncc(C(=O)N/N=C/c3cccc(OC)c3)n2)cc1 [Compound 37, (E)-N′-(3-methoxybenzylidene)-6-(4-methoxyphenyl)pyrazine-2-carbohydrazide]

The remaining lines, values behind:

Row | SMILES | IC50 [1] [nM] | IC50 [2] [nM]
10 | COc1cc(/C=N/NC(=O)c2cncc(-c3ccc(OCSC)cc3)n2)cc(OC)c1 [Compound 149, (E)-N′-(3,5-dimethoxybenzylidene)-6-(4-((methylthio)methoxy)phenyl)pyrazine-2-carbohydrazide] | 60.9 | 123
11 | COc1cc(/C=N/NC(=O)c2cncc(-c3ccc(OC)cc3C)n2)cc(OC)c1 [Compound 109, (E)-N′-(3,5-dimethoxybenzylidene)-6-(4-methoxy-2-methylphenyl)pyrazine-2-carbohydrazide] | 149 | 566
12 | COc1cc(/C=N/NC(=O)c2cncc(-c3ccc(OC(C)(C)C)cc3)n2)cc(OC)c1 [Compound 87, (E)-6-(4-(tert-butoxy)phenyl)-N′-(3,5-dimethoxybenzylidene)pyrazine-2-carbohydrazide] | 447 | 264
13 | CCOc1ccc(-c2cncc(C(=O)N/N=C/c3ccnc(OC)c3)n2)cc1 [Compound 10, (E)-6-(4-ethoxyphenyl)-N′-((2-methoxypyridin-4-yl)methylene)pyrazine-2-carbohydrazide] | > 300 | > 300
14 | CCOc1ccc(-c2cnc(C)c(C(=O)N/N=C/c3cc(OC)cc(OC)c3)n2)cc1 [Compound 143, (E)-N′-(3,5-dimethoxybenzylidene)-6-(4-ethoxyphenyl)-3-methylpyrazine-2-carbohydrazide] | 650 | 5150
15 | COc1cc(/C=N/NC(=O)c2cncc(-c3ccc(OCC(C)C)cc3)n2)cc(OC)c1 [Compound 85, (E)-N′-(3,5-dimethoxybenzylidene)-6-(4-isobutoxyphenyl)pyrazine-2-carbohydrazide] | 31.8 | 159
16 | CCOc1ccc(-c2cncc(C(=O)N/N=C/c3cc(OC)cc(OC)c3OC)n2)cc1 [Compound 13, (E)-6-(4-ethoxyphenyl)-N′-(2,3,5-trimethoxybenzylidene)pyrazine-2-carbohydrazide] | 73 | 189
